Assay results published in the supplement of paper PMC10307832.

Key:
Assay in all cases: relative viability (nuclei count vs DMSO), 5 days (fraction); higher = more cells survive
[1] = compound: CC(=O)c1c(C)c2cnc(Nc3ccc(N4CCNCC4)cn3)nc2n(C2CCCC2)c1=O [Palbociclib] + CCNC(=O)c1noc(-c2cc(C(C)C)c(O)cc2O)c1-c1ccc(CN2CCOCC2)cc1 [Luminespib] (partner 0.01 µM)
Method in brief: (§1)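 Nuclei were stained with Hoechst during a one-step fixation (final 0.05% Triton X-100, 1% formaldehyde, 1 ug/ml Hoechst) carried out 5 days after dosing, then counted on 4× images. The cells, lung cancer lines in 1536-well plates, had been dosed by pin tool the day after seeding with one drug alone or a fixed anchor-drug dose plus five library-drug doses (not always all listed) in √10 steps. Relative viability is the nuclei count in treated wells divided by that in vehicle wells, and each value is the median of duplicate plates.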

[2] = compound: CC(=O)c1c(C)c2cnc(Nc3ccc(N4CCNCC4)cn3)nc2n(C2CCCC2)c1=O [Palbociclib] + COc1cccc2cc(-c3nc([C@H]4CC[C@H](C(=O)O)CC4)n4ncnc(N)c34)[nH]c12 [OSI-027] (partner 0.5 µM)
Method in brief: as §1

[3] = compound: CC(=O)c1c(C)c2cnc(Nc3ccc(N4CCNCC4)cn3)nc2n(C2CCCC2)c1=O [Palbociclib] + CS(=O)(=O)CCNCc1ccc(-c2ccc3ncnc(Nc4ccc(OCc5cccc(F)c5)c(Cl)c4)c3c2)o1 [Lapatinib] (partner 2 µM)
Method in brief: as §1

[4] = compound: CC(=O)c1c(C)c2cnc(Nc3ccc(N4CCNCC4)cn3)nc2n(C2CCCC2)c1=O [Palbociclib] + Nc1ncn([C@H]2C[C@H](O)[C@@H](CO)O2)c(=O)n1 [Decitabine] (partner 2 µM)
Method in brief: as §1

Row | Cell Line | relative viability ([1]; first compound 0.01 µM) | relative viability ([1]; first compound 0.03162 µM) | relative viability ([1]; first compound 0.1 µM) | relative viability ([1]; first compound 0.3162 µM) | relative viability ([1]; first compound 1 µM) | relative viability ([2]; first compound 0.01 µM) | relative viability ([2]; first compound 0.03162 µM) | relative viability ([2]; first compound 0.1 µM) | relative viability ([2]; first compound 0.3162 µM) | relative viability ([2]; first compound 1 µM) | relative viability ([3]; first compound 0.01 µM) | relative viability ([3]; first compound 0.1 µM) | relative viability ([3]; first compound 0.3162 µM) | relative viability ([3]; first compound 1 µM) | relative viability ([4]; first compound 0.01 µM) | relative viability ([4]; first compound 0.03162 µM) | relative viability ([4]; first compound 0.1 µM) | relative viability ([4]; first compound 0.3162 µM) | relative viability ([4]; first compound 1 µM) | relative viability ([3]; first compound 0.03162 µM)
1 | NCI-H2405 | 0.818 | 0.893 | 0.613 | 0.843 | 0.534 | 0.586 | 0.487 | 0.492 | 0.483 | 0.396 | 1.04 | 0.819 | 0.901 | 0.761 | 0.781 | 0.808 | 0.691 | 0.64 | 0.605 | –
2 | NCI-H1563 | 0.479 | 0.444 | 0.432 | 0.577 | 0.489 | 0.75 | 0.776 | 0.74 | 0.735 | 0.534 | 0.952 | 0.955 | 0.844 | 0.759 | – | – | – | – | – | 0.852
3 | EPLC-272H | 0.225 | – | 0.346 | 0.518 | 0.379 | 0.293 | – | 0.257 | 0.254 | 0.213 | 1.14 | 0.71 | 0.603 | 0.718 | 0.4 | – | 0.322 | 0.309 | 0.324 | –
4 | NCI-H1299 | – | – | – | – | – | – | – | – | – | – | 0.952 | 0.86 | 0.809 | 0.642 | – | – | – | – | – | 0.877
5 | HCC-78 | – | – | – | – | – | 0.424 | 0.382 | 0.315 | 0.319 | 0.254 | 0.914 | 0.513 | 0.685 | 0.198 | 0.651 | 0.629 | 0.773 | 0.694 | 0.429 | 0.313
6 | SW 900 | 0.198 | – | 0.163 | 0.182 | 0.171 | 0.582 | – | 0.399 | 0.322 | 0.358 | – | – | – | – | 0.393 | – | 0.475 | 0.478 | 0.484 | –
7 | A549 | – | – | – | – | – | – | – | – | – | – | 0.868 | 0.615 | 0.474 | 0.364 | 0.269 | – | 0.245 | 0.274 | 0.302 | 0.784
8 | HCC-366 | – | – | – | – | – | 0.916 | – | 0.722 | 0.731 | 0.482 | 1.06 | 0.953 | 0.91 | 0.608 | 0.338 | – | 0.33 | 0.334 | 0.342 | –
9 | LCLC-103H | 0.978 | 0.808 | 0.848 | 0.718 | 0.584 | 0.432 | 0.368 | 0.406 | 0.358 | 0.302 | – | – | – | – | 0.675 | 0.76 | 0.674 | 0.679 | 0.627 | –
10 | NCI-H1703 | – | – | – | – | – | – | – | – | – | – | 0.99 | 0.833 | 0.602 | 0.451 | – | – | – | – | – | –
11 | NCI-H2342 | 0.719 | 0.757 | 0.575 | 0.718 | 0.549 | 0.575 | 0.546 | 0.566 | 0.549 | 0.433 | – | – | – | – | 0.744 | 0.712 | 0.602 | 0.713 | 0.582 | –
12 | IA-LM | – | – | – | – | – | – | – | – | – | – | 0.701 | 0.392 | 0.264 | 0.143 | – | – | – | – | – | 0.41
13 | CAL-12T | 0.367 | 0.318 | 0.463 | 0.277 | 0.206 | 0.766 | 0.546 | 0.441 | 0.446 | 0.316 | 0.759 | – | 0.367 | 0.334 | – | – | – | – | – | –
